Laboratory results: patent EP3687536B1, “METHODS OF TREATING HEMOCHROMATOSIS AND RESPIRATORY DISORDERS” (MYMD PHARMACEUTICALS, INC., priority 2017, dated 2019)
Entries after “also recorded” stand apart in the source; their conditions may differ.

Columns and labels:
MAO-A = target: T1, MAO-A (Homo sapiens, UniProt P21397); experiment: MAO-Glo luminescent assay, MAO-A inhibition; assay type: biochemical; conditions: for inhibiting the enzymatic activity of MAO-A (result in words): compared among isomyosmine, myosmine, anatabine, anabasine, nornicotine, clorgyline positive control, FIG. 3
T1 construct: purchased
T1 sequence (P21397 1-527): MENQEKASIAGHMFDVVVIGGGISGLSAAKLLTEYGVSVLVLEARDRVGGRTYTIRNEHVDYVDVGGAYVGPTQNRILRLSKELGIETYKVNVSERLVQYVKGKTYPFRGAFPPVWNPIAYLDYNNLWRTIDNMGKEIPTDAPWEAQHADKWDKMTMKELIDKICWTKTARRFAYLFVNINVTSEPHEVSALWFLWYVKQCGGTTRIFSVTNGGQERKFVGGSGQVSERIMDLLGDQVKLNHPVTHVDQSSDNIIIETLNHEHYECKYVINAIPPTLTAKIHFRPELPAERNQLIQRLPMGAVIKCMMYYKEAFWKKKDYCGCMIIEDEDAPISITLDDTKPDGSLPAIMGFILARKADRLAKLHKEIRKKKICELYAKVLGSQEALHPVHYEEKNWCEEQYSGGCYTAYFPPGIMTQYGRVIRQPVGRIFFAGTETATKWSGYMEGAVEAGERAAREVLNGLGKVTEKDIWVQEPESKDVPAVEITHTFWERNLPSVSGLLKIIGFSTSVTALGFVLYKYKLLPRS
Excerpt: (§1) This example describes experiments for determining monoamine oxidase (MAO) inhibition for isomyosmine and other alkaloids. MAOs are enzymes located on the outer membrane of mitochondria and are involved in the catabolism of monoamine neurotransmitters. There are two well-characterized isoenzymes: MAO-A, which predominantly catabolizes serotonin and norepinephrine, and MAO-B, which preferentially catabolizes benzylamine and phenylethylamine. Dopamine and tyramine are metabolized by both isoforms.
(§2) To detect the activity of MAO, a luminescent method (MAO-Glo Assay kit, from Promega, Cat # V1401) was used. In this method, a MAO substrate (a derivative of beetle luciferin provided in the kit) is mixed with the compound to be tested (in this case, myosmine and control compounds). Then, the MAO enzymes (either A or B, purchased separately) are added to the mixture and incubated with the reaction for 1 hour at room temperature. The MAO enzymes, if not inhibited by the test compound, will convert the substrate into methyl ester luciferin. Finally, a luciferin detection reagent (provided by the kit) is added (20 minutes at room temperature) to stop the MAO reaction and convert methyl ester luciferin into D-luciferin. D-luciferin reacts with luciferase to produce a luminescent signal, which is directly proportional to the D-luciferin concentration and thus the MAO activity: the greater the amount of light produced the higher the activity of MAO. The luminescent signal is measured and recorded using a luminometer.
The following materials were obtained from Toronto Research Chemicals, North York, ON: isomyosmine, catalog # 1821350; myosmine, catalog # M835000; anabasine, catalog # A637175; and nornicotine, catalog # N756995. Anatabine was obtained from Emerson Resources, Norristown, PA.

MAO-B = target: T2, MAO-B (Homo sapiens, UniProt P27338); experiment: MAO-Glo luminescent assay, MAO-B inhibition; assay type: biochemical; conditions: compared among isomyosmine, myosmine, anatabine, anabasine, nornicotine; FIG. 4
T2 construct: purchased
T2 sequence (P27338 1-520): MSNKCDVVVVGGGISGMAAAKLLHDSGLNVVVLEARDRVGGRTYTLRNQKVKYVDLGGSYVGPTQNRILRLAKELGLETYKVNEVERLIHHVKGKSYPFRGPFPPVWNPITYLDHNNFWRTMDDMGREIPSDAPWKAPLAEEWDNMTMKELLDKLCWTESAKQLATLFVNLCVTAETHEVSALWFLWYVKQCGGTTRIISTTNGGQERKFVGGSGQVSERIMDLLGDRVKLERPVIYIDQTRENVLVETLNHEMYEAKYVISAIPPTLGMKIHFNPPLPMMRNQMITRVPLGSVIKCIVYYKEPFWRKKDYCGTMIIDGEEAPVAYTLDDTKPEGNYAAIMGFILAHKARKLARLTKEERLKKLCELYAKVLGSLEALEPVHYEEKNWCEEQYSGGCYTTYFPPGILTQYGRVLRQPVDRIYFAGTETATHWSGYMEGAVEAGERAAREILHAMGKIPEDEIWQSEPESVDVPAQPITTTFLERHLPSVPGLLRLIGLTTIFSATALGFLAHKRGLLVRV
Excerpt: as §1
as §2, with “D-luciferin reacts with luciferase to produce a luminescent signal, which is directly proportional to the D-luciferin concentration and thus the MAO activity: the greater the amount of light produced the higher the activity of MAO.” left out, “luminometer. […]” for “luminometer.”

[1] = Blood oxygen saturation (SpO2) by pulse oximetry in individuals; assay type: in vivo, human; conditions: seven individuals, one hour after single dose 50-100 mg
Excerpt: This example illustrates the effect of isomyosmine on normal blood oxygen saturation levels (SpO2). SpO2 refers to peripheral capillary oxygen saturation, an estimate of the amount of oxygen in the blood. More specifically, it is the percentage of oxygenated hemoglobin (hemoglobin containing oxygen) compared to the total amount of hemoglobin in the blood (oxygenated and non-oxygenated hemoglobin). SpO2 can be measured by pulse oximetry, an indirect, non-invasive method. It works by emitting and then absorbing a light wave passing through blood vessels (or capillaries) in the fingertip. A variation of the light wave passing through the finger will give the value of the SpO2 measurement because the degree of oxygen saturation causes variations in the blood's color.

[2] = Topical administration for wound healing; assay type: in vivo; conditions: e.g. surgical incisions
Excerpt: A method, not falling within the scope of the claimed subject-matter, of treating a wound is also described herein which comprises administering to an individual in need thereof a pharmaceutical composition containing a therapeutically effective amount of isomyosmine or a pharmaceutically acceptable salt thereof.

Row | Structure (SMILES) | inhibiting the enzymatic activity of MAO-A (result in words) (MAO-A) | inhibiting the enzymatic activity of MAO-A (result in words) (MAO-A; listed as Isomyosmine) | inhibition at 2000 µM (MAO-A; read-out: inhibition of MAO-A) | inhibiting the activity of MAO-B (result in words) (MAO-B) | blood oxygenation (result in words) [1] | wound healing (result in words) [2]
1 | C1=NC(c2cccnc2)CC1 (stereo not shown) [isomyosmine, 3-(3,4-dihydro-2H-pyrrol-2-yl)-pyridine] | most potent of the five | potent inhibitor | ~50% | most potent among the five alkaloids tested; also recorded: potent inhibitor | significant increase in blood oxygenation | dramatically improve healing
2 | C#CCN(C)CCCOc1ccc(Cl)cc1Cl [clorgyline, reference compound] | greatly shifted leftward |  |  |  |  | 
